Test results: US20040067218A1, “Extramedullary adipose tissue cells and use thereof for regenerating hematopoietic and muscular tissue” (priority 2001, published 2004)

Key:
[1] = test system: muscarinic acetylcholine receptors; experiment: Spontaneous contractile activity of cardiomyocytes differentiated from vascular stroma cells (muscarinic agents); type: cell-based, mouse; settings: untreated = 100%
Experimental: (§1) Cells of the vascular stroma, isolated as described in Example 1.2, are cultured in the methylcellulose-based semi-solid medium as defined above (Example 1.8).
(§2) The cardiomyocytes are also detected by their spontaneous contractile activity in the presence or absence of agonists or antagonists of muscarinic acetylcholine receptors (carbamylcholine and atropine, respectively) or β-adrenergic receptors (isoproterenol and propranolol, respectively).
(§3) More precisely, 1 ml of DMEM medium containing carbamylcholine (2 μM), atropine (10 μM), isoproterenol (10 μM) or propranolol (40 μM) is added to the methyl-cellulose-based medium. After incubation for 5 min, necessary for diffusion of the molecules, the excess buffer is removed and the cell contractions are counted under the microscope for one minute.
(§4) The values correspond to the mean of 3 independent measurements.

[2] = test system: β-adrenergic receptors; experiment: Spontaneous contractile activity of cardiomyocytes differentiated from vascular stroma cells (β-adrenergic agents); type: cell-based, mouse; settings: untreated = 100%
Experimental: as §1, §2, §3, §4

CN1[C@@H]2CC[C@H]1C[C@@H](OC(=O)C(CO)c1ccccc1)C2 (stereo partly shown) [Atropine, atropine]
Contractions ([1]; atropine (10 μM) added with carbamylcholine (2 μM), mean of 3): 106%

CC(C)NCC(O)c1ccc(O)c(O)c1 (stereo not shown) [Isoproterenol, isoproterenol]
Contractions ([2]; isoproterenol (10 μM) alone, mean of 3 independent measurements): 160%

C[N+](C)(C)CCOC(N)=O.[Cl-] [Carbamylcholine, carbamylcholine]
Contractions ([1]; carbamylcholine (2 μM) alone, mean of 3 independent measurements): 53%

CC(C)NCC(O)COc1cccc2ccccc12 (stereo not shown) [Propranolol, propranolol]
Contractions ([2]; propranolol (40 μM) added with isoproterenol (10 μM), mean of 3): 100%
